Results as given in US5563142A, “Diaromatic substituted compounds as anti-HIV-1 agents” (The Upjohn Company, priority 1994, dated 1996).
pEC50: −log10 of the molar value. Structures can show the parent of a compound that is named as a salt. Where two headings read alike, the source gives them in different places.

Tests used:
[1] = target: T1, viral reverse transcriptase (Human immunodeficiency virus type 1 group M subtype B, UniProt P04585); experiment: Viral reverse transcriptase inhibition, cell free assay; assay type: biochemical, human immunodeficiency virus (HIV-1); conditions: poly rC or poly rG template; for inhibition at 100 µM: read-out: RT % INHIBITION (100 μM), 100 μM
T1 construct: Viral reverse transcriptase is found in extracts from bacterial clones; made in house; host or cells: Escherichia coli (extracts of bacterial clones, by the procedure of Larder et al., EMBO J. 6:3133-3137, 1987)
From the text: The utility of the diaromatic substituted piperazines (III), the anti-AIDS piperazines (IV) and the indoles (V) of this invention can be determined by their ability to inhibit viral reverse transcriptase, an enzyme essential for human immunodeficiency virus replication. This enzyme has characteristics which differentiate it from other known cellular polymerases and it is a unique enzyme which is not found in uninfected cells. Viral reverse transcriptase is found in extracts from bacterial clones prepared according to the procedure described in AIDS Virus Reverse Transcriptase defined by high level expression in Escherichia coli, EMBO J. 6:3133-3137 (1987). Inhibition of this enzyme is determined in a cell free assay which measures the level of radioactive precursors incorporated into DNA. Extracts prepared according to the procedure of Science, 1125-1129 (1981) are incubated in a mixture of inhibitor, 20 mM dithiothreitol, 60 mM sodium chloride, 0.05% NP-40, 10 mM magnesium chloride, 50 mM Tris pH 8.3, 10 μM [^35 S]-labeled deoxynuleoside-5'-triphosphate, 10 μg/ml RNA template (poly rC or poly rG) and 5 μg/ml DNA primer (oligo dG or oligo dT) for 30 minutes at 37° C. Incorporation of radio-labeled percursor is determined by spotting aliquots of the reaction mixture on DE81 paper, washing the papers to remove unincorporated percursor, drying and determining counts. The results (IC50 means the concentration, in μM of drug, required to inhibit the reverse transcriptase activity to the extent of 50%) of various assay(s) are combined and reported as % inhibition and IC50 (calculated).
^1 Viral reverse transcriptase is found in extracts from bacterial
clones prepared according to the procedure described by Larder, B.,
Purifoy D., Powell, K. and Darby, G., AIDS virus reverse transcriptase
defined by high level expression in Escherichia coli., EMBO J. 6,
3133-3137 (1987). Inhibition of this enzyme is determined in a cell free
assay which measures the level of radioactive precursors incorporated int
DNA. Extracts prepared according to the procedure of Kleid, D. G., et
al., Science, 1125-1129 (1981) are incubated in a mixture of inhibitor, 2
mM dithiothreitol, 60 mM sodium chloride, 0.05% NP40, 10 mM magnesium
chloride, 50 mM Tris pH 8.3, 10 μM [^35 Slabeled
deoxynucleoside5triphosphate, 10 μg/ml RNA template (poly rC or poly
rG) and 5 μg/ml DNA primer (oligo dG or oligo dT) for 15 minutes at
37°. Incorporation of radio labeled precursor is determined by
harvesting the trichloroacetic acid precipitated reaction mixtures on
glass fiber filters, drying, and determining counts. The results of
various assays are combined and reported as % inhibition at a 100 μM

[2] = test system: HIV in primary human peripheral blood lymphocytes; experiment: Primary PBL assay: inhibition of viral replication (p24 & RNA); assay type: cell-based; conditions: primary human lymphocytes infected with HIV, days three and four, read-out: PBL INHIBITION OF VIRAL REPLICATION (p24 & RNA) ED50
Protocol: ^3 The utility of the compounds of the invention is further
infection in primary peripheral blood lymphocytes (primary PBL assay). Th
primary PBL assay offers the following advantages:
(a) The assays are performed with primary human lymphocytes. Thereby,
undesired testing of transformed cell lines is avoided in which host cell
and virus may have undergone processes of mutual adaptation. Performance
of cell culture in serum containing media closely mimics the in vivo
situation. (b) The primary PBL assay distinguishes between true antiviral
effect which is due to the drug and cytostatic/cytotoxic reactions. (c)
Viral replication is precisely followed by kinetic measurement of viral
nucleic acids and proteins. (d) Nucleic acids (total HIVRNA intra and
extracellular) and protein (secreted p24) are measured in parallel which
permits one to differentiate between the compound's effect on virus
replication and on the expression of viral proteins. This leads to
additional information regarding the efficacy of the test compound. (e)
Tolerance of the cell culture against low amounts of organic solvents als
permits the investigation of hydrophobic substances. (f) The dose of the
drug causing half maximal suppression of virus replication is determined.
(g) The screening system is standardized and automated to a high degree.
The primary PBL assay uses the following procedure:
Effects of the compounds of the invention on cell proliferation are determined by lymphocyte proliferation assays. Starting with a 100 micromolar solution, the compound is serially diluted 10 fold. One tenth of the concentration of a compound causing half maximal inhibition of cellular proliferation is employed for all subsequent testing.
Peripheral human lymphocytes are isolated by density gradient centrifugation. After stimulation by mitogen the cells are infected with a standardized preparation of HIV. Subsequently, the infected cells are cultured in the presence of the drug for four days. Individual cultures are established to measure viral replication three and four days following infection. Untreated cells and AZT-treated cells are included as controls in parallel with the drugs under investigation.
The amount of viral core protein p24 synthesized and release by the infected cells is determined in the supernatant by the capture-ELISA technique on days three and four. By comparing with a standard preparation, the amount of protein produced by the virus infected cells is quantified.
The total amount of viral RNA synthesized by the infected lymphocytes is determined by a special nucleic acid hybridization on days three and four of culture. By including a standard preparation of HIV-RNA the amount of synthesized RNA is quantified.
In addition, viability of HIV-infected cells is determined in parallel with assays for viral p24 and RNA. In order to evaluate the half maximal antiviral effect of the drug, a concentration dependency of the drug action is measured.
Numerous examples of the compounds of the invention are assayed according to this procedure. The anti-HIV activity, as measured by the inhibition of the release of core p24 protein in HIV infected human lymphocytes, is used to calculate ED50 -antiviral (the concentration required to give a 50% reduction in p24 synthesis).

[3] = Human immunodeficiency virus 1, Lymphocyte

For `CCNc1cccnc1N1CCN(C(=O)c2cc3cc(OC)ccc3[nH]2)CC1` [Example 16, 1-[5-Methoxyindolyl-2-carbonyl]-4-[3-(ethylamino)-2-pyridinyl]piperazine], the inhibition at 100 µM [1] was 85 to 88% and the pEC50 [2] was 8.52.

In the case of `O=C(c1cc2cc(F)ccc2[nH]1)N1CCN(c2ncccc2NCC(F)(F)F)CC1` [Example 34, 1-[5-Fluoroindolyl-2-carbonyl]-4-[3-(2,2,2-trifluoroethylamino)-2-pyridinyl]piperazine], the inhibition at 100 µM [1] was 41% and the pEC50 [2, 3] was > 5.00.

`CC(C)Nc1cccnc1N1CCN(C(=O)c2cc3cc(OCc4ccccc4)ccc3[nH]2)CC1` [Example 36, 1-[5-Benzyloxyindolyl-2-carbonyl]-4-[3-(1-methylethyl)amino-2-pyridinyl]piperazine] showed an inhibition at 100 µM [1] of 69 to 84% and a pEC50 [2, 3] of 8.00.

In the case of `CC(C)Nc1cccnc1N1CCN(C(=O)c2cc3cc(O)ccc3[nH]2)CC1` [Example 38, 1-[5-Hydroxyindolyl-2-carbonyl]-4-[3-(1-methylethylamino)-2-pyridinyl]piperazine], the inhibition at 100 µM [1] was 96 to 98% and the pEC50 [2, 3] was > 9.00.

`CC(C)Nc1nccnc1N1CCN(C(=O)c2cc3cc(F)ccc3[nH]2)CC1` [Example 47, 1-(5-Fluoroindolyl-2-carbonyl)-4-[3-(1-methylethylamino)-2-pyrazinyl]piperazine] was tested, and the inhibition at 100 µM [1] was 91% and the pEC50 [2, 3] was 8.00 to 9.00.

Molecule `CC(C)Nc1cncnc1N1CCN(C(=O)c2cc3cc(F)ccc3[nH]2)CC1` [Example 48, 1-(5-Fluoroindolyl-2-carbonyl)-4-[5-(1-methylethylamino)-4-pyrimidinyl]piperazine] has an inhibition at 100 µM [1] of 63 to 92% and a pEC50 [2, 3] of 7.00 to 8.00.

In the case of `CC(C)Nc1ccnnc1N1CCN(C(=O)c2cc3ccccc3[nH]2)CC1` [Example 49, 1-(Indolyl-2-carbonyl)-4-[4-(1-methylethylamino)-3-pyridazinyl]piperazine, methane sulfonate], the inhibition at 100 µM [1] was 84 to 94% and the pEC50 [2, 3] was ≥ 7.00.

Molecule `CC(C)Nc1ccnnc1N1CCN(C(=O)c2cc3cc(F)ccc3[nH]2)CC1` [Example 50, 1-(5-Fluoroindolyl-2-carbonyl)-4-[4-(1-methylethyl)amino)-3-pyridazinyl]piperazine, methane sulfonate] has an inhibition at 100 µM [1] of 84 to 97% and a pEC50 [2, 3] of 7.00.

`CC(C)Nc1cccnc1N(C)CCN(C)C(=O)c1cc2ccccc2[nH]1` [Example 52, N,N'-Dimethyl-N-(indolyl-2-carbonyl)-N'-(3-(1-methylethylamino)pyrid-2-yl)ethylenediamine] showed an inhibition at 100 µM [1] of 89 to 94% and a pEC50 [2, 3] of 6.00 to 7.00.

`CC(C)Nc1cccnc1N(C)CCCN(C)C(=O)c1cc2ccccc2[nH]1` [Example 53, N,N'-Dimethyl-N-(indolyl-2-carbonyl)-N'-[3-(1-methylethyl-amino)-2-pyridyl]-1,3-propanediamine] showed an inhibition at 100 µM [1] of 82 to 94% and a pEC50 [2, 3] of 8.00 to 9.00.

`CC(C)Nc1cccnc1N(C)CCCCCCN(C)C(=O)c1cc2ccccc2[nH]1` [Example 54, N,N'-Dimethyl-N-(indolyl-2-carbonyl)-N'-[3-(1-methylethyl-amino)-2-pyridinyl]-1,6-hexanediamine] was tested, and the inhibition at 100 µM [1] was 70 to 80% and the pEC50 [2, 3] was 7.00.

`CC(C)Nc1cccnc1N(C)CCOC(=O)c1cc2ccccc2[nH]1` [Example 55] showed an inhibition at 100 µM [1] of 66 to 79% and a pEC50 [2, 3] of 6.00 to 7.00.

Molecule `O=C(c1cc2ccccc2[nH]1)N1CCN(c2ncccc2NC2CCCC2)CC1` [Example 56, 1-(Indolyl-2-carbonyl)-4-(3-cyclopentylamino-2-pyridinyl)piperazine] has an inhibition at 100 µM [1] of 79 to 93% and a pEC50 [2, 3] of 6.00 to 7.00.

`CC(C)Nc1cccnc1OCCN(C)C(=O)c1cc2ccccc2[nH]1` [Example 58, 2-(2-(N-Methyl-N-(indolyl-2-carbonyl)amino)ethoxy)-3-(1-methylethylamino)pyridine] was tested, and the inhibition at 100 µM [1] was 94 to 98% and the pEC50 [2, 3] was > 7.00.

`CCOC(=O)COc1ccc2[nH]c(C(=O)N3CCN(c4ncccc4NC(C)C)CC3)cc2c1` [Example 60, 1-[5-(Ethoxycarbonylmethoxy)indolyl-2-carbonyl]-4-[3-(1-methylethylamino)-2-pyridinyl]piperazine] was tested, and the inhibition at 100 µM [1] was 89 to 92% and the pEC50 [2, 3] was 6.00 to 7.00.

`CC(C)Nc1cccnc1N1CCN(C(=O)c2cc3cc(OCC(=O)O)ccc3[nH]2)CC1` [Example 61, sodium salt] was tested, and the inhibition at 100 µM [1] was 91% and the pEC50 [2, 3] was 6.00.

In the case of `CC(C)Nc1cccnc1N1CCN(C(=O)c2nc3ccccc3[nH]2)CC1` [Example 62], the “RT % INHIBITION (100 μM)” value ([1]; 100 μM) was 64-78% and the pEC50 [2] was 5.00 to 6.00.

Work on `CC(C)Nc1cccnc1N1CCN(C(=O)c2cc3ccc4ccccc4c3[nH]2)CC1` [Example 121, 1-[Benz[g]indolyl-2-carbonyl]-4-[3-(1-methylethylamino)-2-pyridinyl]piperazine] yielded an inhibition at 100 µM [1] of 64 to 70%.

Work on `CC(C)Nc1cccnc1N1CCN(C(=O)c2cc3c(ccc4ccccc43)[nH]2)CC1` [Example 122, 1-[Benz[e]indolyl-2-carbonyl]-4-[3-(1-methylethylamino)-2-pyridinyl]piperazine] yielded an inhibition at 100 µM [1] of 84%.

Work on `CCNc1cccnc1N(C)CCN(C)C(=O)c1cc2ccccc2[nH]1` [Example 123, N,N'-Dimethyl-N-(indolyl-2-carbonyl)-N'-(3-ethylamino-2-pyridyl)ethylenediamine] yielded an inhibition at 100 µM [1] of 47 to 60%.

`CC(C)Nc1cccnc1N1CCN(C(=O)c2cccc3cc[nH]c23)CC1` [Example 128, 1-[Indolyl-7-carbonyl]-4-[3-(1-methylethylamino)-2-pyridinyl]-piperazine] was tested, and the inhibition at 100 µM [1] was 89 to 98%.

For `CC(C)Nc1cccnc1N1CCN(C(=O)c2cccc3c2NCC3)CC1` [Example 129, 1-[2,3-Didehydroindolyl-7-carbonyl]-4-[3-(1-methylethylamino)-2-pyridinyl]piperazine], the inhibition at 100 µM [1] was 68 to 84%.

With `CCNc1cccnc1N1CCN(C(=O)c2cccc3c2NCC3)CC1` [Example 130] the inhibition at 100 µM [1] was 48 to 59%.

Molecule `CC(C)Nc1cccnc1N(C)C1CCN(C(=O)c2cc3ccccc3[nH]2)CC1` [Example 131, 1-(Indolyl-2-carbonyl)-4-(N-methyl-N-(3-(1-methylethylamino)-2-pyridinyl)amino)piperidine] has an inhibition at 100 µM [1] of 85 to 97%.
